Measured values published in the NIST ThermoML archive (doi:10.1007/s10765-006-0122-6).

Conditions: for kinematic viscosity / surface tension liquid-gas: surface light scattering; for speed of sound / thermal diffusivity: dynamic light scattering

FC(C(F)(F)F)C(F)(F)F [1,1,1,2,3,3,3-heptafluoropropane]
Conditions | Critical temperature [K] | kinematic viscosity [m2/s] | speed of sound [m/s] | surface tension liquid-gas [mN/m] | thermal diffusivity [m2/s]
253.15 K, Liquid | – | 2.88e-07 | – | 12.26 | –
263.15 K, Liquid | – | 2.54e-07 | – | 10.96 | –
273.15 K, Liquid | – | 2.28e-07 | – | 9.76 | –
283.15 K, Liquid | – | 2.05e-07 | – | 8.62 | –
293.15 K, Liquid | – | 1.83e-07 | – | 7.46 | –
293.22 K, Liquid | – | – | 437.4 | – | 3.66e-08
303.12 K, Liquid | – | – | 397.8 | – | 3.5e-08
303.15 K, Liquid | – | 1.66e-07 | – | 6.31 | –
313.15 K, Liquid | – | 1.52e-07 | – | 5.25 | –
313.2 K, Liquid | – | – | 356.8 | – | 3.26e-08
323.15 K, Liquid | – | 1.36e-07 | – | 4.23 | –
323.18 K, Liquid | – | – | 315.5 | – | 3.14e-08
332.72 K, Liquid | – | – | 275.1 | – | 2.95e-08
333.15 K, Liquid | – | 1.22e-07 | – | 3.23 | –
342.68 K, Liquid | – | – | 231.6 | – | 2.76e-08
343.15 K, Liquid | – | 1.08e-07 | – | 2.3 | –
345.66 K, Gas | – | – | 92.5 | – | 1.01e-07
348.02 K, Liquid | – | – | 208.4 | – | 2.66e-08
348.15 K, Gas | – | – | 90.6 | – | 9.3e-08
350.65 K, Gas | – | – | 89.4 | – | 8.46e-08
353.02 K, Liquid | – | – | 185.5 | – | 2.51e-08
353.15 K, Gas | – | – | 87.1 | – | 7.64e-08
353.15 K, Liquid | – | 9.43e-08 | – | 1.42 | –
355.64 K, Gas | – | – | 85.1 | – | 6.9e-08
358.09 K, Liquid | – | – | 160.8 | – | 2.36e-08
358.14 K, Gas | – | – | 82.9 | – | 6.06e-08
358.15 K, Liquid | – | 8.74e-08 | – | 1.02 | –
360.64 K, Gas | – | – | 80.4 | – | 5.25e-08
363.09 K, Liquid | – | – | 134.7 | – | 2.11e-08
363.14 K, Gas | – | – | 77.9 | – | 4.41e-08
363.15 K, Liquid | – | 8.08e-08 | – | 0.644 | –
365.63 K, Gas | – | – | 75.2 | – | 3.6e-08
365.9 K, Liquid | – | – | 118.5 | – | 1.92e-08
367.67 K, Gas | – | – | 72.8 | – | 2.91e-08
368.08 K, Liquid | – | – | 106.1 | – | 1.72e-08
368.15 K, Liquid | – | 7.34e-08 | – | 0.314 | –
369.47 K, Gas | – | – | 70.5 | – | 2.26e-08
370.15 K, Liquid | – | 7.03e-08 | – | 0.2 | –
370.2 K, Liquid | – | – | 92.6 | – | 1.42e-08
370.76 K, Gas | – | – | 68.7 | – | 1.78e-08
371.15 K, Liquid | – | 6.79e-08 | – | 0.145 | –
371.41 K, Liquid | – | – | 83.8 | – | 1.21e-08
371.96 K, Gas | – | – | 67 | – | 1.32e-08
372.15 K, Liquid | – | 6.74e-08 | – | – | –
372.19 K, Liquid | – | – | 78.2 | – | 9.91e-09
372.96 K, Gas | – | – | 65.3 | – | 9.21e-09
372.99 K, Liquid | – | – | 72.8 | – | 7.88e-09
373.5 K, Liquid | – | – | 68.3 | – | 6.11e-09
373.95 K, Gas | – | – | 63.6 | – | 4.9e-09
373.99 K, Liquid | – | – | 65.3 | – | 4.34e-09
374.45 K, Gas | – | – | – | – | 2.65e-09
374.49 K, Liquid | – | – | – | – | 2.24e-09
374.65 K, Gas | – | – | – | – | 1.73e-09
374.67 K, Liquid | – | – | – | – | 1.36e-09
Liquid, Visual observation in an unstirred cell | 374.9 | – | – | – | –
